Assay results as given in PMC8037650, “Biochemical Characterization of Recombinant UDPG-Dependent IAA Glucosyltransferase from Maize (Zea mays)” (International Journal of Molecular Sciences, 2021).

Tests used:
[1] = molecular target: T1, IAGlc synthase (Zea mays, UniProt Q41819); experiment: coupled spectrophotometric assay, […] acceptor (relative activity); format: biochemical
T1 construct: gene IAGLU; recombinant, N-terminally His-tagged, expressed in E. coli
T1 sequence (Q41819 1-471): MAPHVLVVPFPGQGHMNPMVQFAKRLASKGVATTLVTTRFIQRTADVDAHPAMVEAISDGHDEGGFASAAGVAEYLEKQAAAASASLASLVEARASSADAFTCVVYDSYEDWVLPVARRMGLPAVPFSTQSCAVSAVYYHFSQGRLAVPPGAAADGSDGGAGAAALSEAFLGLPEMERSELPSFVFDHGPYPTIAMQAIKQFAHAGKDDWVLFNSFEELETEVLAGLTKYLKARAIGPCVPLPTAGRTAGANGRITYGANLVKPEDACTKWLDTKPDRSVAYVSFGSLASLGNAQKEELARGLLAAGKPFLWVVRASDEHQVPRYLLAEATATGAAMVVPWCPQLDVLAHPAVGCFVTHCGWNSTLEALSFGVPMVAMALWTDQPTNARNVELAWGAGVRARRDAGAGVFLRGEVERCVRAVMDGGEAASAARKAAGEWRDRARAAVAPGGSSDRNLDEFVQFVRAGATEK

[2] = molecular target: T1, IAGlc synthase; experiment: […]IAA glucosylation TLC radioassay, Dixon plot; format: biochemical

Relative Activity (%) [1] [%]	Structure (SMILES)	Ki [2] [µM]
66	O=C(O)CCCc1c[nH]c2ccccc12 [IBA, indole-3-butyric acid]	–
49.7	O=C(O)CCc1c[nH]c2ccccc12 [IPA, indole-3-propionic acid]	–
–	O=C(O)COc1ccc(Cl)cc1Cl [2,4-D, 2,4-dichlorophenoxyacetic acid]	117 ± 10
